Counter-ions that a name gives are not always drawn.
How the values were obtained:
[1] = test system: mouse macrophage cell line Raw 264.7; assay: TNF-α inhibition in mouse cells; format: cell-based; settings: Raw 264.7 cells stimulated by lipopolysaccharide (LPS); single concentration 5 μM or dose response 0.03-10 μM; TNF-α by ELISA
Protocol: The compounds of Formulas I, II, III, IV, V, VI, VII, and VIII are useful as immune response modifiers (IRMs) due to their ability to modulate cytokine biosynthesis (e.g., induce or inhibit the biosynthesis or production of one or more cytokines) and otherwise modulate the immune response when administered to animals. Compounds can be tested per the test procedures described in the Examples Section. Compounds can be tested for induction of cytokine biosynthesis by incubating human peripheral blood mononuclear cells (PBMC) in a culture with the compound(s) at a concentration range of 30 to 0.014 μM and analyzing for interferon (α) or tumor necrosis factor (α) in the culture supernatant. Compounds can be tested for inhibition of cytokine biosynthesis by incubating mouse macrophage cell line Raw 264.7 in a culture with the compound(s) at a single concentration of, for example, 5 μM and analyzing for tumor necrosis factor (α) in the culture supernatant. The ability to modulate cytokine biosynthesis, for example, induce the biosynthesis of one or more cytokines, makes the compounds useful in the treatment of a variety of conditions such as viral diseases and neoplastic diseases, that are responsive to such changes in the immune response. […]
(§1) Raw cells (ATCC) are harvested by gentle scraping and then counted. […]
The compounds are solubilized in dimethyl sulfoxide (DMSO). […] LPS (Lipopolysaccaride from Salmonella typhimurium, Sigma-Aldrich) is diluted with colorless RPMI to the EC70 concentration as measured by a dose response assay. […]
Following the incubation the supernatant is removed with a pipet. TNF-α concentration is determined by ELISA using a mouse TNF-α kit (from Biosource International, Camarillo, Calif.). […]
as §1
The compounds are solubilized in dimethyl sulfoxide (DMSO). […] LPS (Lipopolysaccaride from Salmonella typhimurium, Sigma-Aldrich) is diluted with colorless RPMI to the EC70 concentration as measured by dose response assay. […]

Compound | melting point | inhibition of production of tumor necrosis factor α (TNF-α) [1]
CC(C)(Cn1c(N)nc2c(N)nc3ccccc3c21)NS(C)(=O)=O [Example 3, N-[2-(2,4-Diamino-1H-imidazo[4,5-c]quinolin-1-yl)-1,1-dimethylethyl]methanesulfonamide] | > 230 °C | –
CCNc1nc2c(N)nc3ccccc3c2n1CC(C)C [Example 6, N^2-Ethyl-1-(2-methylpropyl)-1H-imidazo[4,5-c]quinoline-2,4-diamine] | 188 to 190 °C | –
COCCNc1nc2c(N)nc3ccccc3c2n1CC(C)(C)O [Example 8, 1-{4-Amino-2-[(2-methoxyethyl)amino]-1H-imidazo[4,5-c]quinolin-1-yl}-2-methylpropan-2-ol] | 176 to 178 °C | inhibiting production of tumor necrosis factor α (TNF-α)
COCCCNc1nc2c(N)nc3ccccc3c2n1CC(C)(C)O [Example 9, 1-{4-Amino-2-[(3-methoxypropyl)amino]-1H-imidazo[4,5-c]quinolin-1-yl}-2-methylpropan-2-ol] | 209 to 210 °C | inhibiting production of tumor necrosis factor α (TNF-α)
CCNc1nc2c(N)nc(C)c(C)c2n1CC(C)C [Example 16, N^2-Ethyl-6,7-dimethyl-1-(2-methylpropyl)-1H-imidazo[4,5-c]pyridine-2,4-diamine] | 168 to 170 °C | –
C[C@H](c1ccccc1)n1c(N)nc2c(N)nc3ccccc3c21 [Example 44, 1-[(1R)-1-Phenylethyl]-1H-imidazo[4,5-c]quinoline-2,4-diamine] | 156 to 160 °C | –
Nc1nc2ccccc2c2c1nc(N)n2CC1(O)CCC1 [Example 46, 1-[(2,4-Diamino-1H-imidazo[4,5-c]quinolin-1-yl)methyl]cyclobutanol] | 295 °C (dec.) | –

Now from value to compound, other results behind:

melting point | Compound | inhibition of production of tumor necrosis factor α (TNF-α) [1]
> 230 °C | CC(C)(O)Cn1c(N)nc2c(N)nc3ccccc3c21 (as salt: hydrobromid) [Example 2, 1-(2,4-Diamino-1H-imidazo[4,5-c]quinolin-1-yl)-2-methylpropan-2-ol hydrobromide] | –
> 250 °C | CC(C)Cn1c(N)nc2c(N)nc3ccccc3c21 [Example 1, 1-(2-Methylpropyl)-1H-imidazo[4,5-c]quinoline-2,4-diamine] | –
254 to 256 °C | Nc1nc2ccccc2c2c1nc(N)n2Cc1ccccc1 [Example 4, 1-Benzyl-1H-imidazo[4,5-c]quinoline-2,4-diamine] | –
233 to 235 °C | CCNc1nc2c(N)nc3ccccc3c2n1CC(C)(C)O [Example 7, 1-[4-Amino-2-(ethylamino)-1H-imidazo[4,5-c]quinolin-1-yl]-2-methylpropan-2-ol] | inhibiting production of tumor necrosis factor α (TNF-α)
> 270 °C | CC(C)(O)Cn1c(N)nc2c(N)nc3c(c21)CCCC3 [Example 18, 1-(2,4-Diamino-6,7,8,9-tetrahydro-1H-imidazo[4,5-c]quinolin-1-yl)-2-methylpropan-2-ol] | –
251 °C | CC(C)(F)Cn1c(N)nc2c(N)nc3ccccc3c21 [Example 43, 1-(2-Fluoro-2-methylpropyl)-1H-imidazo[4,5-c]quinoline-2,4-diamine] | –
135 to 140 °C | C[C@@H](c1ccccc1)n1c(N)nc2c(N)nc3ccccc3c21 [Example 45, 1-[(1S)-1-Phenylethyl]-1H-imidazo[4,5-c]quinoline-2,4-diamine] | –
255 to 258 °C (dec.) | COC(=O)Nc1nc2c(N)nc3ccccc3c2n1CC(C)(C)O [Example 181, Methyl [4-amino-1-(2-hydroxy-2-methylpropyl)-1H-imidazo[4,5-c]quinolin-2-yl]carbamate] | –

Reference: US8143270B2, “2-amino 1H-in-imidazo ring systems and methods” (3M Innovative Properties Company, priority 2004, dated 2012)
